Laboratory results reported in patent publication US11331290B2, “Niclosamide for the treatment of cancer metastasis” (Max-Delbrück-Centrum für Molekulare Medizin in der …, priority 2011, dated 2022).

What was measured:
[1] = tested on: SW620, LS174T, SW480 and DLD-1 cells; assay: Anchorage-dependent cell proliferation (MTT); format: cell-based, human; settings: all four cell lines, 1 μM daily
Protocol: (§1) For cell proliferation determination of HCT116, SW620, LS174T, SW480 and DLD-1 cells 2×10^3 cells were seeded in 96-well-plates (for each day one plate) and were given 24 hours to attach to the bottom of the well. Cells were from then on treated daily with 1 μM niclosamide or the respective amount of DMSO. For determination of viable cells 3-(4,5-dimethyl-2-thiazol)-2,5-diphenyl-2H-tetrazolium bromide (MTT; Sigma) was added to a final concentration of 0.5 mg per mL and incubated for 3 hours at 37° C. and 5% CO2 in a humidified incubator. […] Crystallized MTT was resolved by 10% SDS in 10 mM HCl and the absorption was measured at 560 nm. […] The average MTT metabolisation was determined of two independent experiments each performed in triplicate.
(A) S100A4 expression under niclosamide treatment. […] S100A4 expression was analyzed with qRT-PCR and immunoblot. […] Migration rates of cells treated with 1 μM niclosamide for 24 hours were determined in a Boyden chamber assay values were normalized to solvent-treated SW620 cells. […] Invaded cells in the lower chamber were counted and normalized to solvent-treated SW620 cells. Differences in solvent vs. niclosamide-treated cells were analyzed by Student's t test. […] The amount of viable cells per well was determined by MTT assay. […] (G) Quantification of colonies formed. Number of colonies (of more than 4 cells) was counted and normalized to solvent-treated SW620 cells. […]

HCT116 cells = assay: Anchorage-dependent cell proliferation (MTT), discontinued treatment; format: cell-based, human
Protocol: as §1
(A) S100A4 expression in vitro after discontinued niclosamide treatment. HCT116 cells were treated daily with 1 μM niclosamide for three consecutive days, medium was removed on day 4, and S100A4 expression was analyzed 24, 48, and 72 hours after niclosamide removal. S100A4 expression was analyzed by qRT-PCR and immunoblot. […] Cell migration rates of HCT116 cells treated as in (A) were determined by Boyden chamber assay. Differences in control vs. treated cells were analyzed by Student's t test. […] Cell proliferation was determined by MTT assay. […] (E) Luminescence signal from liver metastases and spleen tumors. […]

[2] = mice chronically fed 200 mg/kg, two years observation time; cited from earlier work

## O=C(Nc1ccc([N+](=O)[O-])cc1Cl)c1cc(Cl)ccc1O [niclosamide, 2′,5-dichloro-4′-nitrosalicylanilide]
[1]
  anchorage-dependent cell proliferation: inhibited
HCT116 cells; 1 μM daily, vs solvent-treated control
  anchorage-dependent proliferation: inhibited
HCT116 cells; niclosamide removed on day 5, following five days
  anchorage-dependent proliferation after removal of niclosamide: did not reverse the inhibition of cell proliferation
[2]
  adverse effects: no adverse effects
